Structures can show the parent of a compound that is named as a salt. ± gives the standard error.
Assays:
[1] = system: 621-102 (TSC2-deficient); assay: relative viability vs DMSO; higher = less cytotoxic; conditions: serum: 10% FBS, 72 h
[2] = system: 621-103 (TSC2-rescued); assay: as above; conditions: serum: 10% FBS, 72 h
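Further: immortalized renal angiomyolipoma cells stably carrying empty vector or TSC2, dosed in 384-well plates in DMEM, viability normalized to vehicle-treated wells within each plate.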

| Structure (SMILES) | relative viability ([1]; 0.0001 µM) | relative viability ([1]; 0.001 µM) | relative viability ([1]; 0.01 µM) | relative viability ([1]; 0.1 µM) | relative viability ([1]; 1 µM) | relative viability ([1]; 10 µM) | relative viability ([2]; 0.0001 µM) | relative viability ([2]; 0.001 µM) | relative viability ([2]; 0.01 µM) | relative viability ([2]; 0.1 µM) | relative viability ([2]; 1 µM) | relative viability ([2]; 10 µM) |
| --- | --- | --- | --- | --- | --- | --- | --- | --- | --- | --- | --- | --- |
| CC(C)(Cc1ccc2ccccc2c1)NC[C@@H](O)COc1cccc(Cl)c1C#N [NPS-2143] | 83.2 ± 5.7% | 93.6 ± 6.1% | 100 ± 2.8% | 97.6 ± 1.3% | 79.52 ± 0.42% | 1 ± 0.14% | 111 ± 4.1% | 102 ± 2.2% | 107 ± 1.8% | 114 ± 2.6% | 106.7 ± 0.6% | 1.29 ± 0.19% |
| C=CC(=O)N1CCC[C@@H](n2nc(-c3ccc(Oc4ccccc4)cc3)c3c(N)ncnc32)C1 | 108 ± 3.1% | 99.6 ± 2.7% | 102 ± 1.1% | 108 ± 4.7% | 112.7 ± 0.33% | 110 ± 4.6% | 99.6 ± 3.6% | 97.1 ± 1.7% | 98.8 ± 1.5% | 103 ± 3% | 108.4 ± 0.78% | 105 ± 3.9% |
| COCCOC(=O)C1=C(C)NC(C)=C(C(=O)OC/C=C/c2ccccc2)C1c1cccc([N+](=O)[O-])c1 (stereo not given) [Cilnidipine] | 118 ± 4% | 100.5 ± 0.18% | 102.6 ± 0.79% | 95.6 ± 1.2% | 99.98 ± 0.81% | 98 ± 2.2% | 98.6 ± 2.3% | 104 ± 3.4% | 105.9 ± 0.78% | 113 ± 2.5% | 100 ± 1.8% | 104 ± 3.1% |
| CN(C)Cc1ccc(-c2nc3cccc4c3n2CCNC4=O)cc1 | 125 ± 2.7% | 120.04 ± 0.068% | 127 ± 1.8% | 119 ± 5% | 118 ± 2.8% | 110 ± 1.7% | 103.8 ± 0.6% | 101.41 ± 0.034% | 102 ± 1.3% | 105 ± 1.6% | 103 ± 0.17% | 97.7 ± 0.77% |
| CC(C)(C)c1cc(NC(=O)Nc2ccc(-c3cn4c(n3)sc3cc(OCCN5CCOCC5)ccc34)cc2)no1 [AC-220] | 81.8 ± 3.2% | 84.77 ± 0.0088% | 87.3 ± 3.6% | 84.9 ± 5.7% | 70.1 ± 1.2% | 53.1 ± 3% | 96.29 ± 0.69% | 98 ± 1.9% | 99.4 ± 2.7% | 97.8 ± 2.8% | 76.5 ± 4.7% | 44.7 ± 1.2% |
| COc1ccc(S(=O)(=O)Nc2cccnc2Nc2ccc(O)cc2)cc1 [ABT-751] | 112 ± 3.7% | 114 ± 3.9% | 111 ± 1.8% | 110 ± 5.1% | 44.8 ± 1.6% | 49.55 ± 0.36% | 108 ± 3.8% | 108 ± 2.6% | 105 ± 3.2% | 98 ± 1.5% | 44.2 ± 2.2% | 44.8 ± 0.75% |
| CC(=O)O[C@H]1C[C@@H]2CC[C@@H]3[C@H](CC[C@@]4(C)[C@H]3C[C@H]([N+]3(C)CCCCC3)[C@@H]4OC(C)=O)[C@@]2(C)C[C@@H]1[N+]1(C)CCCCC1 [Pancuronium bromide] | 83.8 ± 6.4% | 95.36 ± 0.26% | 93.6 ± 3.5% | 91.4 ± 3.3% | 84.1 ± 1.2% | 52.5 ± 0.78% | 97.7 ± 0.99% | 104 ± 1.3% | 101 ± 2.5% | 95 ± 3.6% | 93.8 ± 4.2% | 51.35 ± 0.38% |
| Nc1nccc(Oc2ccc(NC(=O)c3c[nH]cc(-c4ccc(F)cc4)c3=O)cc2F)c1Cl | 94 ± 10% | 118 ± 2.6% | 111 ± 3.1% | 103 ± 2.8% | 102 ± 2.2% | 94.5 ± 1.3% | 90.9 ± 6.6% | 94.6 ± 4.2% | 102 ± 1.6% | 104 ± 2% | 98.9 ± 1.2% | 98.15 ± 0.84% |
| Nc1nc(Cl)nc2c1ncn2[C@H]1C[C@H](O)[C@@H](CO)O1 [Cladribine] | 106.2 ± 0.9% | 110 ± 1.8% | 113 ± 2.1% | 106.4 ± 0.98% | 97.8 ± 3.5% | 52.73 ± 0.19% | 101 ± 1.4% | 101 ± 2.1% | 105 ± 2.1% | 105 ± 2.4% | 60.3 ± 0.92% | 43.5 ± 0.46% |
| COc1cc2c(N3CCN(C(=O)Nc4ccc(OC(C)C)cc4)CC3)ncnc2cc1OCCCN1CCCCC1 [Tandutinib (MLN518)] | 107 ± 3.1% | 97.9 ± 4.1% | 99.7 ± 0.23% | 96.6 ± 3% | 98.2 ± 3.4% | 80 ± 2.4% | 99.4 ± 1.1% | 99.87 ± 0.96% | 101 ± 2.1% | 101 ± 1.9% | 99.31 ± 0.29% | 83.4 ± 1.2% |
| CN1[C@@H]2CC[C@H]1C[C@@H](OC(=O)c1c[nH]c3ccccc13)C2 [Tropisetron HCl] | 82.2 ± 3.4% | 94 ± 3.9% | 99.6 ± 3.9% | 106 ± 2% | 99.47 ± 0.15% | 93.3 ± 1.3% | 89.7 ± 3% | 96.7 ± 2.6% | 102 ± 2.4% | 95.48 ± 0.32% | 106.6 ± 0.86% | 84.7 ± 1.7% |
| C=CC(=O)Nc1cccc(Sc2nc(Nc3ccc(N4CCN(C)CC4)cc3)ncc2Cl)c1 [WZ8040] | 98.7 ± 3.8% | 97.6 ± 2.1% | 99.3 ± 3.3% | 95.9 ± 1.6% | 98 ± 3.3% | 17.7 ± 4.6% | 100 ± 1.2% | 100 ± 1.6% | 99.8 ± 1.3% | 100 ± 1.5% | 100.6 ± 0.89% | 14.9 ± 0.36% |
| COc1ccnc2[nH]cc(C(=O)C(=O)N3CCN(C(=O)c4ccccc4)C[C@H]3C)c12 | 105 ± 6.5% | 106 ± 3.8% | 111 ± 2.5% | 107 ± 2.7% | 86 ± 1.2% | 88.5 ± 5.7% | 112 ± 3.3% | 112 ± 1.2% | 108 ± 1.6% | 103 ± 1.8% | 106 ± 1.2% | 115 ± 1.5% |
| FC(F)(F)c1ccc(/C=C/c2nc(COc3ccc(CCCCn4ccnn4)cc3)co2)cc1 [Mubritinib (TAK 165)] | 106 ± 3.2% | 105.09 ± 0.037% | 97.5 ± 1.1% | 103 ± 2.6% | 107 ± 1.2% | 110.2 ± 1.1% | 112 ± 3.3% | 106 ± 2% | 104 ± 2.1% | 112 ± 1.4% | 107 ± 2.1% | 115 ± 1.7% |
| CC/C(=C(\c1ccccc1)c1ccc(OCCN(C)C)cc1)c1ccccc1 [Tamoxifen Citrate] | 102.7 ± 0.75% | 98.8 ± 1.8% | 111 ± 2.6% | 98.76 ± 0.6% | 100.8 ± 1% | 80.9 ± 5.2% | 101 ± 3.6% | 102 ± 3.1% | 104 ± 5.2% | 101 ± 2.4% | 107 ± 3.5% | 48.1 ± 2.6% |
| CCOc1cc2ncc(C#N)c(Nc3ccc(OCc4ccccn4)c(Cl)c3)c2cc1NC(=O)/C=C/CN(C)C [Neratinib] | 110 ± 1.2% | 103 ± 1.1% | 117.5 ± 0.44% | 103.9 ± 0.36% | 88.058 ± 0.084% | 50.9 ± 0.56% | 101.7 ± 0.83% | 99.12 ± 0.5% | 100.4 ± 0.55% | 96 ± 2.1% | 67.12 ± 0.38% | 41.08 ± 0.095% |
| CCCCNc1ccc(C(=O)OCCN(C)C)cc1 [Tetracaine HCl] | 113 ± 2.6% | 105 ± 2.3% | 100 ± 3.7% | 102 ± 3.7% | 102 ± 3.2% | 105 ± 1.1% | 72.9 ± 4.8% | 91.42 ± 0.14% | 90.6 ± 5.6% | 103 ± 6.7% | 78.5 ± 6.8% | 74.1 ± 2.6% |
| Cc1cc(Nc2nc(N[C@@H](C)c3ccc(F)cc3)c(C#N)cc2F)n[nH]1 [AZ 960] | 99.6 ± 4% | 107 ± 3.6% | 103 ± 4.5% | 104 ± 2.7% | 47.1 ± 3.6% | 44.9 ± 4.3% | 99.9 ± 3.1% | 101 ± 1.2% | 94.7 ± 2.2% | 92.44 ± 0.84% | 62.82 ± 0.16% | 16.3 ± 0.85% |
| Clc1ccc(Nc2nnc(Cc3ccncc3)c3ccccc23)cc1 [Vatalanib] | 94.7 ± 6.8% | 102 ± 9.1% | 115 ± 1.4% | 108 ± 1.8% | 110 ± 2.7% | 117.2 ± 0.94% | 104 ± 1.1% | 106 ± 2% | 106 ± 2.4% | 105 ± 1.4% | 103 ± 2.8% | 110.66 ± 0.097% |
| N#CC(=C(/N)Sc1ccccc1N)/C(C#N)=C(\N)Sc1ccccc1N [U0126-EtOH] | 105 ± 3.4% | 103 ± 1.3% | 103 ± 2.5% | 103 ± 1.1% | 99.47 ± 0.83% | 93.3 ± 4.4% | 105 ± 2.4% | 101 ± 1.1% | 99.9 ± 1.5% | 101 ± 2% | 100.6 ± 0.44% | 90.4 ± 1.6% |

— the supplement of paper PMC8960247
